Active and inactive are the calls of the source. No rule for the calls is given here.
Assays:
Test in all cases: ABHD10 inhibitor selectivity across serine hydrolases, late-stage follow-up, selectivity assay for PME-1 inhibitor project, cell-based, LC-MS/MS, ABPP-SILAC (AID 588805)
Abhd11 = conditions: serine hydrolase panel, hits give low values
Abhd12 = conditions: serine hydrolase panel, hits give low values
Abhd13 = conditions: serine hydrolase panel, hits give low values
Ache = conditions: serine hydrolase panel, hits give low values
Acot2 = conditions: serine hydrolase panel, hits give low values
Acot7 = conditions: serine hydrolase panel, hits give low values
Acot9 = conditions: serine hydrolase panel, hits give low values
[1] = target: Acyl-protein thioesterase 1 (Mus musculus) (UniProt P97823); conditions: serine hydrolase panel, Lypla1, hits give low values
Apeh = conditions: serine hydrolase panel, hits give low values
Bat5 = conditions: serine hydrolase panel, hits give low values
Ctsa = conditions: serine hydrolase panel, hits give low values
Ddhd2 = conditions: serine hydrolase panel, hits give low values
[2] = target: Diacylglycerol lipase-beta (Mus musculus) (UniProt Q91WC9); conditions: serine hydrolase panel, Daglb, hits give low values
Dpp7 = conditions: serine hydrolase panel, hits give low values
Dpp8 = conditions: serine hydrolase panel, hits give low values
Dpp9 = conditions: serine hydrolase panel, hits give low values
Esd = conditions: serine hydrolase panel, hits give low values
Faah = conditions: serine hydrolase panel, hits give low values
Fam108a = conditions: serine hydrolase panel, hits give low values
Fam108b1 = conditions: serine hydrolase panel, hits give low values
Fam108c1 = conditions: serine hydrolase panel, hits give low values
Fasn = conditions: serine hydrolase panel, hits give low values
Htra2 = conditions: serine hydrolase panel, hits give low values
Iah1 = conditions: serine hydrolase panel, hits give low values
Lactb = conditions: serine hydrolase panel, hits give low values
Lipe = conditions: serine hydrolase panel, hits give low values
Lypla2 = conditions: serine hydrolase panel, hits give low values
Lyplal1 = conditions: serine hydrolase panel, hits give low values
[3] = target: Monoacylglycerol lipase ABHD6 (Mus musculus) (UniProt Q8R2Y0); conditions: serine hydrolase panel, hits give low values
Nceh1 = conditions: serine hydrolase panel, hits give low values
Pafah1b2 = conditions: serine hydrolase panel, hits give low values
Pafah1b3 = conditions: serine hydrolase panel, hits give low values
[4] = target: Palmitoyl-protein thioesterase ABHD10, mitochondrial (Mus musculus) (UniProt Q6PE15); conditions: serine hydrolase panel, hits give low values
Parl = conditions: serine hydrolase panel, hits give low values
Pgap1 = conditions: serine hydrolase panel, hits give low values
Pla2g15 = conditions: serine hydrolase panel, hits give low values
Pla2g6 = conditions: serine hydrolase panel, hits give low values
[5] = target: Platelet-activating factor acetylhydrolase 2, cytoplasmic (Mus musculus) (UniProt Q8VDG7); conditions: serine hydrolase panel, Pafah2, hits give low values
Pme1 = conditions: serine hydrolase panel, hits give low values
Pnpla6 = conditions: serine hydrolase panel, hits give low values
Pnpla7 = conditions: serine hydrolase panel, hits give low values
Pnpla8 = conditions: serine hydrolase panel, hits give low values
Ppt2 = conditions: serine hydrolase panel, hits give low values
Prcp = conditions: serine hydrolase panel, hits give low values
Prepl = conditions: serine hydrolase panel, hits give low values
[6] = target: Prolyl endopeptidase (Mus musculus) (UniProt Q9QUR6); conditions: serine hydrolase panel, Prep, hits give low values
Qrsl1 = conditions: serine hydrolase panel, hits give low values
Rbbp9 = conditions: serine hydrolase panel, hits give low values
Sec23ip = conditions: serine hydrolase panel, hits give low values
Serhl = conditions: serine hydrolase panel, hits give low values

Chain of Acyl-protein thioesterase 1 (Mus musculus) (P97823 whole entry, looked up): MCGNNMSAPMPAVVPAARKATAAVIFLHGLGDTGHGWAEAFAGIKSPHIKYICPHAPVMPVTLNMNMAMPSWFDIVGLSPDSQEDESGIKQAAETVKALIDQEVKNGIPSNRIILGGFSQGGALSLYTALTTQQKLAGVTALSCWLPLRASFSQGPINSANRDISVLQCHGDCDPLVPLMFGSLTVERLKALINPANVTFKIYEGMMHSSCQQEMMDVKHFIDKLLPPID
Chain of Monoacylglycerol lipase ABHD6 (Mus musculus) (Q8R2Y0 whole entry, looked up): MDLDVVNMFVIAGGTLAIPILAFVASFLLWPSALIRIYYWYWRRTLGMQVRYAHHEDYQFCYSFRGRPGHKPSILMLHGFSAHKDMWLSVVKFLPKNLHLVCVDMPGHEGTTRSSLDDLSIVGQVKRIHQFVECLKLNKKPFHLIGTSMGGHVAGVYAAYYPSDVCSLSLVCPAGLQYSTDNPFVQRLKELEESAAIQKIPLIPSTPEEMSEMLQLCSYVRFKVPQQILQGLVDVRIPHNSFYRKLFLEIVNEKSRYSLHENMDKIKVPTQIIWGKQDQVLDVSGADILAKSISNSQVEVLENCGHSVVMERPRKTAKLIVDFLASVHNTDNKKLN
Chain of Palmitoyl-protein thioesterase ABHD10, mitochondrial (Mus musculus) (Q6PE15 whole entry, looked up): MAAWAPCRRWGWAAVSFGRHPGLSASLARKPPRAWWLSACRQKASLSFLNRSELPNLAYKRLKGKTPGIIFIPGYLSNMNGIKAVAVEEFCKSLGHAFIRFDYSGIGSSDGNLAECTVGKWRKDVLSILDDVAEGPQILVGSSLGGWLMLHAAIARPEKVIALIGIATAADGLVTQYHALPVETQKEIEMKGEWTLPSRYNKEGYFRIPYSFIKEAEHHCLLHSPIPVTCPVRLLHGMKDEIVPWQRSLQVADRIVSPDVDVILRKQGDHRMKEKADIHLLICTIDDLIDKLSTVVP
Chain of Prolyl endopeptidase (Mus musculus) (Q9QUR6 whole entry, looked up): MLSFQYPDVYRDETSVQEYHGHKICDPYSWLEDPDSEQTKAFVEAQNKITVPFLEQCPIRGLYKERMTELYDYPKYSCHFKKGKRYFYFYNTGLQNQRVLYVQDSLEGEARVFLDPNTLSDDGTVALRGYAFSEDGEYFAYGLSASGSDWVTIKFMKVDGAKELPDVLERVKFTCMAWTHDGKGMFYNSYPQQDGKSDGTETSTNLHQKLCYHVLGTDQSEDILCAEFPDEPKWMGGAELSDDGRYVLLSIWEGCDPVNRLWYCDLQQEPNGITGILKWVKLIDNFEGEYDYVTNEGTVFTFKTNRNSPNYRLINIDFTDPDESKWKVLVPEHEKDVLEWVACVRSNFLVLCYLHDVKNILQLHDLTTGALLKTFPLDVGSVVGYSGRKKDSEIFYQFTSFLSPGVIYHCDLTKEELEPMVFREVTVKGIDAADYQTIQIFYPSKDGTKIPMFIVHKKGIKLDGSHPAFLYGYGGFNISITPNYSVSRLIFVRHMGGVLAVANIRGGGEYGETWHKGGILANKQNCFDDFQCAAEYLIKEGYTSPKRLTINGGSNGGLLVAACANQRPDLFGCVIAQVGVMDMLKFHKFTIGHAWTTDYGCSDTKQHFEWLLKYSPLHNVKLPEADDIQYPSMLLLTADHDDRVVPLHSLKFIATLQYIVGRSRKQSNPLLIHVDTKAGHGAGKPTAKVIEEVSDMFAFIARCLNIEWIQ
Chain of Platelet-activating factor acetylhydrolase 2, cytoplasmic (Mus musculus) (Q8VDG7 whole entry, looked up): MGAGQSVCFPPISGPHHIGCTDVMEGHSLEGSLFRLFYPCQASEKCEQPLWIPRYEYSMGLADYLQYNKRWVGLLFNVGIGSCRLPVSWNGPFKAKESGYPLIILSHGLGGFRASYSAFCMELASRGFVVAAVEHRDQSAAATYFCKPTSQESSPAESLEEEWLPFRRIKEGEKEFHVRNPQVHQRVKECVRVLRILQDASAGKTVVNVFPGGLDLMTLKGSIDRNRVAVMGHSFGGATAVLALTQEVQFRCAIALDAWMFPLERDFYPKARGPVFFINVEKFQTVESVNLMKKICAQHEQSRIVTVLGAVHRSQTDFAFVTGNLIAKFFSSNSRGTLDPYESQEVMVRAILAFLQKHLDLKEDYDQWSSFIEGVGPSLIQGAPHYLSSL
Chain of Diacylglycerol lipase-beta (Mus musculus) (Q91WC9 whole entry, looked up): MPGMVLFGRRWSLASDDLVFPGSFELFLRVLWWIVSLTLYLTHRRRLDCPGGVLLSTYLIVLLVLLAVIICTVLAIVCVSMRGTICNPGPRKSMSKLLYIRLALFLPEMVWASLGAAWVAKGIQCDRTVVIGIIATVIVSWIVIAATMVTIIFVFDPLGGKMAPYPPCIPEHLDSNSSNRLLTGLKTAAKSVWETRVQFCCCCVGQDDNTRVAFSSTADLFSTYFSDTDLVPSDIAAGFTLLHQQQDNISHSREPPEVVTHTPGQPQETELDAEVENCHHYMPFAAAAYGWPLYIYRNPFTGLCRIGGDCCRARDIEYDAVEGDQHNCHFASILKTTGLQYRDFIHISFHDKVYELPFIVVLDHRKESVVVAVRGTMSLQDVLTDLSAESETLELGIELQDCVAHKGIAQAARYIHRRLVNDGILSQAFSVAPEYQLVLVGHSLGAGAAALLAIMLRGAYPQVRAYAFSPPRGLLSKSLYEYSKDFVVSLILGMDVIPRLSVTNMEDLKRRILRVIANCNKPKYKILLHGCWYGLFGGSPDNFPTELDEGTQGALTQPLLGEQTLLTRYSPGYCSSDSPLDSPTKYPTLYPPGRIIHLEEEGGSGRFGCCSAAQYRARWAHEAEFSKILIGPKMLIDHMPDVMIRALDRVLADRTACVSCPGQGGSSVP

CC[C@@]1(c2ccc(C)cc2)C(=O)N(C(=O)OC(C)C)N1C(=O)OC(C)C
SILAC ratio (treated/control) (Abhd11): 1 (inactive) | SILAC ratio (treated/control) (Abhd12): 0.9 (inactive) | SILAC ratio (treated/control) (Abhd13): 0.84 (inactive) | SILAC ratio (treated/control) (Ache): 0.9 (inactive) | SILAC ratio (treated/control) (Acot2): 1 (inactive) | SILAC ratio (treated/control) (Acot7): 1.05 (inactive) | SILAC ratio (treated/control) (Acot9): 1.1 (inactive) | SILAC ratio (treated/control) [1]: 1.14 (inactive) | SILAC ratio (treated/control) (Apeh): 1.07 (inactive) | SILAC ratio (treated/control) (Bat5): 1.02 (inactive) | SILAC ratio (treated/control) (Ctsa): 0.81 (inactive) | SILAC ratio (treated/control) (Ddhd2): 0.99 (inactive) | SILAC ratio (treated/control) [2]: 0.96 (inactive) | SILAC ratio (treated/control) (Dpp7): 0.97 (inactive) | SILAC ratio (treated/control) (Dpp8): 1.48 (inactive) | SILAC ratio (treated/control) (Dpp9): 1.08 (inactive) | SILAC ratio (treated/control) (Esd): 1.04 (inactive) | SILAC ratio (treated/control) (Faah): 0.94 (inactive) | SILAC ratio (treated/control) (Fam108a): 1.16 (inactive) | SILAC ratio (treated/control) (Fam108b1): 1.05 (inactive) | SILAC ratio (treated/control) (Fam108c1): 0.93 (inactive) | SILAC ratio (treated/control) (Fasn): 1.1 (inactive) | SILAC ratio (treated/control) (Htra2): 0.98 (inactive) | SILAC ratio (treated/control) (Iah1): 0.95 (inactive) | SILAC ratio (treated/control) (Lactb): 0.85 (inactive) | SILAC ratio (treated/control) (Lipe): 1.13 (inactive) | SILAC ratio (treated/control) (Lypla2): 1.07 (inactive) | SILAC ratio (treated/control) (Lyplal1): 1.06 (inactive) | SILAC ratio (treated/control) [3]: 0.87 (inactive) | SILAC ratio (treated/control) (Nceh1): 1.03 (inactive) | SILAC ratio (treated/control) (Pafah1b2): 1.06 (inactive) | SILAC ratio (treated/control) (Pafah1b3): 1.06 (inactive) | SILAC ratio (treated/control) [4]: 0.02 | SILAC ratio (treated/control) (Parl): 0.96 (inactive) | SILAC ratio (treated/control) (Pgap1): 0.92 (inactive) | SILAC ratio (treated/control) (Pla2g15): 1 (inactive) | SILAC ratio (treated/control) (Pla2g6): 1.06 (inactive) | SILAC ratio (treated/control) [5]: 1.06 (inactive) | SILAC ratio (treated/control) (Pme1): 1.06 (inactive) | SILAC ratio (treated/control) (Pnpla6): 1.32 (inactive) | SILAC ratio (treated/control) (Pnpla7): 1.01 (inactive) | SILAC ratio (treated/control) (Pnpla8): 0.97 (inactive) | SILAC ratio (treated/control) (Ppt2): 1.04 (inactive) | SILAC ratio (treated/control) (Prcp): 0.94 (inactive) | SILAC ratio (treated/control) (Prepl): 1.05 (inactive) | SILAC ratio (treated/control) [6]: 1.01 (inactive) | SILAC ratio (treated/control) (Qrsl1): 0.96 (inactive) | SILAC ratio (treated/control) (Rbbp9): 1.07 (inactive) | SILAC ratio (treated/control) (Sec23ip): 1.17 (inactive) | SILAC ratio (treated/control) (Serhl): 0.9 (inactive)
